ChEMBL document CHEMBL4002566, “S-substituted 3,5-dinitrophenyl 1,3,4-oxadiazole-2-thiols and tetrazole-5-thiols as highly efficient antitubercular agents” (Eur J Med Chem, 2017)
Values after ≈ are worked out from the molar mass of the structure shown.

Assays:
Assay type in all cases: functional
[1] = system: Mycobacterium tuberculosis; assay: Antimycobacterial activity against multidrug-resistant Mycobacterium tuberculosis Praha 131 after 14 days by micromethod
[2] = system: Mycobacterium tuberculosis; assay: Antimycobacterial activity against multidrug-resistant Mycobacterium tuberculosis Praha 4 after 14 days by micromethod
[3] = system: Mycobacterium tuberculosis; assay: Antimycobacterial activity against multidrug-resistant Mycobacterium tuberculosis 8666/2010 after 21 days by micromethod; details: 8666/2010, 504 h
[4] = system: Mycobacterium tuberculosis; assay: Antimycobacterial activity against multidrug-resistant Mycobacterium tuberculosis 234/2005 after 14 days by micromethod
[5] = system: Mycobacterium tuberculosis; assay: Antimycobacterial activity against multidrug-resistant Mycobacterium tuberculosis 9449/2007 after 14 days by micromethod
[6] = system: Mycobacterium tuberculosis; assay: Antimycobacterial activity against multidrug-resistant Mycobacterium tuberculosis 8666/2010 after 14 days by micromethod
[7] = system: Mycobacterium tuberculosis; assay: Antimycobacterial activity against multidrug-resistant Mycobacterium tuberculosis Praha 4 after 21 days by micromethod; details: Praha 4, 504 h
[8] = system: Mycobacterium tuberculosis; assay: Antimycobacterial activity against multidrug-resistant Mycobacterium tuberculosis 234/2005 after 21 days by micromethod; details: 234/2005, 504 h
[9] = system: Mycobacterium tuberculosis; assay: Antimycobacterial activity against multidrug-resistant Mycobacterium tuberculosis 7357/1998 after 21 days by micromethod; details: 7357/1998, 504 h
[10] = system: Mycobacterium tuberculosis; assay: Antimycobacterial activity against multidrug-resistant Mycobacterium tuberculosis Praha 1 after 14 days by micromethod
[11] = system: Mycobacterium tuberculosis; assay: Antimycobacterial activity against multidrug-resistant Mycobacterium tuberculosis Praha 1 after 21 days by micromethod; details: Praha 1, 504 h
[12] = system: Mycobacterium tuberculosis; assay: Antimycobacterial activity against multidrug-resistant Mycobacterium tuberculosis 7357/1998 after 14 days by micromethod
[13] = system: Mycobacterium tuberculosis; assay: Antimycobacterial activity against multidrug-resistant Mycobacterium tuberculosis Praha 131 after 21 days by micromethod; details: Praha 131, 504 h
[14] = system: Mycobacterium tuberculosis; assay: Antimycobacterial activity against multidrug-resistant Mycobacterium tuberculosis 9449/2007 after 21 days by micromethod; details: 9449/2007, 504 h

Molecule | MIC ([1]; Praha 131, 336 h) [µM] | MIC ([2]; Praha 4, 336 h) [µM] | MIC [3] [µM] | MIC ([4]; 234/2005, 336 h) [µM] | MIC ([5]; 9449/2007, 336 h) [µM] | MIC ([6]; 8666/2010, 336 h) [µM] | MIC [7] [µM] | MIC [8] [µM] | MIC [9] [µM] | MIC ([10]; Praha 1, 336 h) [µM] | MIC [11] [µM] | MIC ([12]; 7357/1998, 336 h) [µM] | MIC [13] [µM] | MIC [14] [µM] | also measured
O=[N+]([O-])c1cc(-c2nnc(SCc3ccc(Cl)c(Cl)c3)o2)cc(C(F)(F)F)c1 | 0.5 (≈ 0.225 µg/mL) | 0.25 (≈ 0.113 µg/mL) | 0.5 (≈ 0.225 µg/mL) | 0.5 (≈ 0.225 µg/mL) | 0.5 (≈ 0.225 µg/mL) | 0.5 (≈ 0.225 µg/mL) | 0.5 (≈ 0.225 µg/mL) | 0.5 (≈ 0.225 µg/mL) | 0.5 (≈ 0.225 µg/mL) | 0.5 (≈ 0.225 µg/mL) | 0.5 (≈ 0.225 µg/mL) | 0.5 (≈ 0.225 µg/mL) | 0.5 (≈ 0.225 µg/mL) | 0.5 (≈ 0.225 µg/mL) | –
NCC[C@H](O)C(=O)N[C@@H]1C[C@H](N)[C@@H](O[C@H]2O[C@H](CN)[C@@H](O)[C@H](O)[C@H]2O)[C@H](O)[C@H]1O[C@H]1O[C@H](CO)[C@@H](O)[C@H](N)[C@H]1O [AMIKACIN] | > 32 | 1 (≈ 0.586 µg/mL) | – | 0.5 (≈ 0.293 µg/mL) | 0.5 (≈ 0.293 µg/mL) | 2 (≈ 1.17 µg/mL) | – | – | – | 0.5 (≈ 0.293 µg/mL) | – | 1 (≈ 0.586 µg/mL) | – | – | –
O=[N+]([O-])c1cc(-n2nnnc2SCc2ccc(Cl)cc2)cc([N+](=O)[O-])c1 | 0.5 (≈ 0.196 µg/mL) | 0.5 (≈ 0.196 µg/mL) | 0.5 (≈ 0.196 µg/mL) | 0.5 (≈ 0.196 µg/mL) | 0.5 (≈ 0.196 µg/mL) | 0.5 (≈ 0.196 µg/mL) | 0.5 (≈ 0.196 µg/mL) | 0.5 (≈ 0.196 µg/mL) | 0.5 (≈ 0.196 µg/mL) | 0.5 (≈ 0.196 µg/mL) | 0.5 (≈ 0.196 µg/mL) | 0.5 (≈ 0.196 µg/mL) | 0.5 (≈ 0.196 µg/mL) | 0.5 (≈ 0.196 µg/mL) | –
CO[C@H]1/C=C/O[C@@]2(C)Oc3c(C)c(O)c4c(O)c(c(/C=N/N5CCN(C)CC5)c(O)c4c3C2=O)NC(=O)/C(C)=C\C=C\[C@H](C)[C@H](O)[C@@H](C)[C@@H](O)[C@@H](C)[C@H](OC(C)=O)[C@@H]1C [RIFAMPIN] | > 8 | > 8 | – | > 8 | > 8 | > 8 | – | – | – | > 8 | – | > 8 | – | – | –
CC1COc2c(N3CCN(C)CC3)c(F)cc3c(=O)c(C(=O)O)cn1c23 (stereo unspecified) [OFLOXACIN] | 16 (≈ 5.78 µg/mL) | > 16 | – | 0.5 (≈ 0.181 µg/mL) | 2 (≈ 0.723 µg/mL) | 8 (≈ 2.89 µg/mL) | – | – | – | 1 (≈ 0.361 µg/mL) | – | 8 (≈ 2.89 µg/mL) | – | – | –
NNC(=O)c1ccncc1 [ISONIAZID] | 16 (≈ 2.19 µg/mL) | 16 (≈ 2.19 µg/mL) | – | 16 (≈ 2.19 µg/mL) | 64 (≈ 8.78 µg/mL) | 32 (≈ 4.39 µg/mL) | – | – | – | 16 (≈ 2.19 µg/mL) | – | 16 (≈ 2.19 µg/mL) | – | – | –
O=[N+]([O-])c1cc(-c2nnc(SCc3ccc(Br)cc3)o2)cc([N+](=O)[O-])c1 | 0.03 (≈ 0.0131 µg/mL) | 0.03 (≈ 0.0131 µg/mL) | 0.06 (≈ 0.0262 µg/mL) | 0.03 (≈ 0.0131 µg/mL) | 0.03 (≈ 0.0131 µg/mL) | 0.03 (≈ 0.0131 µg/mL) | 0.06 (≈ 0.0262 µg/mL) | 0.06 (≈ 0.0262 µg/mL) | 0.06 (≈ 0.0262 µg/mL) | 0.03 (≈ 0.0131 µg/mL) | 0.06 (≈ 0.0262 µg/mL) | 0.03 (≈ 0.0131 µg/mL) | 0.06 (≈ 0.0262 µg/mL) | 0.06 (≈ 0.0262 µg/mL) | –
O=[N+]([O-])c1cc(-n2nnnc2SCc2ccc(Cl)c(Cl)c2)cc([N+](=O)[O-])c1 | 0.25 (≈ 0.107 µg/mL) | 0.25 (≈ 0.107 µg/mL) | 0.25 (≈ 0.107 µg/mL) | 0.25 (≈ 0.107 µg/mL) | 0.25 (≈ 0.107 µg/mL) | 0.25 (≈ 0.107 µg/mL) | 0.25 (≈ 0.107 µg/mL) | 0.25 (≈ 0.107 µg/mL) | 0.5 (≈ 0.214 µg/mL) | 0.25 (≈ 0.107 µg/mL) | 0.5 (≈ 0.214 µg/mL) | 0.25 (≈ 0.107 µg/mL) | 0.5 (≈ 0.214 µg/mL) | 0.25 (≈ 0.107 µg/mL) | –
CC[C@@H](CO)NCCN[C@@H](CC)CO [ETHAMBUTOL] | 32 (≈ 6.54 µg/mL) | 16 (≈ 3.27 µg/mL) | – | 16 (≈ 3.27 µg/mL) | 8 (≈ 1.63 µg/mL) | 16 (≈ 3.27 µg/mL) | – | – | – | 32 (≈ 6.54 µg/mL) | – | 16 (≈ 3.27 µg/mL) | – | – | –
COc1ccc(CSc2nnc(-c3cc([N+](=O)[O-])cc([N+](=O)[O-])c3)o2)cc1 | 0.03 (≈ 0.0117 µg/mL) | 0.03 (≈ 0.0117 µg/mL) | 0.06 (≈ 0.0233 µg/mL) | 0.03 (≈ 0.0117 µg/mL) | 0.03 (≈ 0.0117 µg/mL) | 0.03 (≈ 0.0117 µg/mL) | 0.06 (≈ 0.0233 µg/mL) | 0.06 (≈ 0.0233 µg/mL) | 0.06 (≈ 0.0233 µg/mL) | 0.03 (≈ 0.0117 µg/mL) | 0.06 (≈ 0.0233 µg/mL) | 0.03 (≈ 0.0117 µg/mL) | 0.06 (≈ 0.0233 µg/mL) | 0.06 (≈ 0.0233 µg/mL) | –
CC(C)/N=c1\cc2n(-c3ccc(Cl)cc3)c3ccccc3nc-2cc1Nc1ccc(Cl)cc1 [CLOFAZIMINE] | 0.25 (≈ 0.118 µg/mL) | 0.5 (≈ 0.237 µg/mL) | – | 0.125 (≈ 0.0592 µg/mL) | 0.125 (≈ 0.0592 µg/mL) | 2 (≈ 0.947 µg/mL) | – | – | – | 0.5 (≈ 0.237 µg/mL) | – | 0.125 (≈ 0.0592 µg/mL) | – | – | –
O=[N+]([O-])c1cc(-c2nnc(SCc3ccc(Cl)c(Cl)c3)o2)cc([N+](=O)[O-])c1 | 0.03 (≈ 0.0128 µg/mL) | 0.03 (≈ 0.0128 µg/mL) | 0.03 (≈ 0.0128 µg/mL) | 0.03 (≈ 0.0128 µg/mL) | 0.03 (≈ 0.0128 µg/mL) | 0.03 (≈ 0.0128 µg/mL) | 0.03 (≈ 0.0128 µg/mL) | 0.03 (≈ 0.0128 µg/mL) | 0.03 (≈ 0.0128 µg/mL) | 0.03 (≈ 0.0128 µg/mL) | 0.03 (≈ 0.0128 µg/mL) | 0.03 (≈ 0.0128 µg/mL) | 0.03 (≈ 0.0128 µg/mL) | 0.03 (≈ 0.0128 µg/mL) | –
O=[N+]([O-])c1cc(-c2nnc(SCc3ccc(Cl)cc3)o2)cc([N+](=O)[O-])c1 | 0.03 (≈ 0.0118 µg/mL) | 0.03 (≈ 0.0118 µg/mL) | 0.06 (≈ 0.0236 µg/mL) | 0.03 (≈ 0.0118 µg/mL) | 0.03 (≈ 0.0118 µg/mL) | 0.03 (≈ 0.0118 µg/mL) | 0.06 (≈ 0.0236 µg/mL) | 0.06 (≈ 0.0236 µg/mL) | 0.06 (≈ 0.0236 µg/mL) | 0.03 (≈ 0.0118 µg/mL) | 0.06 (≈ 0.0236 µg/mL) | 0.03 (≈ 0.0118 µg/mL) | 0.06 (≈ 0.0236 µg/mL) | 0.06 (≈ 0.0236 µg/mL) | –
O=[N+]([O-])c1cc(-c2nnc(SCc3ccccc3Cl)o2)cc([N+](=O)[O-])c1 | 0.06 (≈ 0.0236 µg/mL) | 0.03 (≈ 0.0118 µg/mL) | 0.125 (≈ 0.0491 µg/mL) | 0.06 (≈ 0.0236 µg/mL) | 0.06 (≈ 0.0236 µg/mL) | 0.06 (≈ 0.0236 µg/mL) | 0.06 (≈ 0.0236 µg/mL) | 0.125 (≈ 0.0491 µg/mL) | 0.125 (≈ 0.0491 µg/mL) | 0.06 (≈ 0.0236 µg/mL) | 0.125 (≈ 0.0491 µg/mL) | 0.06 (≈ 0.0236 µg/mL) | 0.125 (≈ 0.0491 µg/mL) | 0.125 (≈ 0.0491 µg/mL) | –
CN[C@@H]1[C@H](O[C@H]2[C@H](O[C@H]3[C@H](O)[C@@H](O)[C@H](N=C(N)N)[C@@H](O)[C@@H]3N=C(N)N)O[C@@H](C)[C@]2(O)C=O)O[C@@H](CO)[C@H](O)[C@H]1O [STREPTOMYCIN] | > 32 | > 32 | – | 32 (≈ 18.6 µg/mL) | > 32 | > 32 | – | – | – | 16 (≈ 9.31 µg/mL) | – | > 32 | – | – | –
O=[N+]([O-])c1cc(-c2nnc(SCc3cccc(Cl)c3)o2)cc([N+](=O)[O-])c1 | 0.03 (≈ 0.0118 µg/mL) | 0.03 (≈ 0.0118 µg/mL) | 0.06 (≈ 0.0236 µg/mL) | 0.03 (≈ 0.0118 µg/mL) | 0.03 (≈ 0.0118 µg/mL) | 0.03 (≈ 0.0118 µg/mL) | 0.06 (≈ 0.0236 µg/mL) | 0.06 (≈ 0.0236 µg/mL) | 0.06 (≈ 0.0236 µg/mL) | 0.03 (≈ 0.0118 µg/mL) | 0.06 (≈ 0.0236 µg/mL) | 0.03 (≈ 0.0118 µg/mL) | 0.06 (≈ 0.0236 µg/mL) | 0.06 (≈ 0.0236 µg/mL) | –
O=[N+]([O-])c1cc(-c2nnc(SCc3ccccc3)o2)cc(C(F)(F)F)c1 | 1 (≈ 0.381 µg/mL) | 1 (≈ 0.381 µg/mL) | 2 (≈ 0.763 µg/mL) | 1 (≈ 0.381 µg/mL) | 2 (≈ 0.763 µg/mL) | 1 (≈ 0.381 µg/mL) | 1 (≈ 0.381 µg/mL) | 1 (≈ 0.381 µg/mL) | 2 (≈ 0.763 µg/mL) | 1 (≈ 0.381 µg/mL) | 1 (≈ 0.381 µg/mL) | 1 (≈ 0.381 µg/mL) | 2 (≈ 0.763 µg/mL) | 2 (≈ 0.763 µg/mL) | –
GENTAMICIN | – | – | – | – | – | – | – | – | – | – | – | – | – | – | MIC [1]: > 8 µM; MIC [2]: 0.5 µM; MIC [4]: 0.25 µM; MIC [5]: 1 µM; MIC [6]: 2 µM; MIC [10]: 1 µM; MIC [12]: 1 µM
